{"source": "paper PMC2754199", "about": "(Journal of biomolecular screening, 2008)", "tested_on": "calpain", "test": "cell-based luminescent calpain activity assay", "note": "Peptide text beside a SMILES is read from it. * marks the point of attachment. Cbz = O=C(OCc1ccccc1)*", "data": [{"compound": "CC(C)[C@H](NC(=O)OCc1ccccc1)C(=O)N[C@H](C=O)Cc1ccccc1", "note": "[MDL-28170] (Cbz-Val-Phe-aldehyde)", "values": [{"measurement": "EC50", "value": "14 ± 1.4", "unit": "µM"}]}]}
